ChEMBL document CHEMBL4507280 (2021)

Key:
[1] = target: Receptor-type tyrosine-protein kinase FLT3 (Homo sapiens) (UniProt P36888); conditions: Compound concentration 1000.0 nM
[2] = target: Phosphatidylinositol 4,5-bisphosphate 3-kinase catalytic subunit beta isoform (Homo sapiens) (UniProt P42338); conditions: Compound concentration 1000.0 nM
[3] = target: Phosphatidylinositol 4-phosphate 5-kinase type-1 gamma (Homo sapiens) (UniProt O60331); conditions: Compound concentration 1000.0 nM
[4] = target: Tyrosine-protein kinase JAK2 (Homo sapiens) (UniProt O60674); conditions: Compound concentration 1000.0 nM
[5] = target: Phosphorylase b kinase regulatory subunit alpha, liver isoform (Homo sapiens) (UniProt P46019); conditions: Compound concentration 1000.0 nM
[6] = target: Dual specificity mitogen-activated protein kinase kinase 7 (Homo sapiens) (UniProt O14733); conditions: Compound concentration 1000.0 nM
[7] = target: 5'-AMP-activated protein kinase catalytic subunit alpha-2 (Homo sapiens) (UniProt P54646); conditions: Compound concentration 1000.0 nM
[8] = target: Receptor tyrosine-protein kinase erbB-2 (Homo sapiens) (UniProt P04626); conditions: Compound concentration 1000.0 nM
[9] = target: Serine/threonine-protein kinase PAK 4 (Homo sapiens) (UniProt O96013); conditions: Compound concentration 1000.0 nM
[10] = target: Serine/threonine-protein kinase MARK2 (Homo sapiens) (UniProt Q7KZI7); conditions: Compound concentration 1000.0 nM
[11] = target: Mitogen-activated protein kinase kinase kinase 4 (Homo sapiens) (UniProt Q9Y6R4); conditions: Compound concentration 1000.0 nM
[12] = target: Sigma intracellular receptor 2 (Homo sapiens, UniProt Q5BJF2); conditions: Compound concentration 10.0 uM
[13] = target: Calcium-dependent protein kinase 1 (Plasmodium falciparum) (UniProt P62344); conditions: Compound concentration 1000.0 nM
[14] = target: Mitogen-activated protein kinase kinase kinase 12 (Homo sapiens) (UniProt Q12852); conditions: Compound concentration 1000.0 nM
[15] = target: Serine/threonine-protein kinase tousled-like 2 (Homo sapiens) (UniProt Q86UE8); conditions: Compound concentration 1000.0 nM
[16] = target: Tyrosine-protein kinase Srms (Homo sapiens) (UniProt Q9H3Y6); conditions: Compound concentration 1000.0 nM
[17] = target: Sodium-dependent serotonin transporter (Homo sapiens) (UniProt P31645); conditions: Compound concentration 10.0 uM
[18] = target: Serine/threonine-protein kinase 33 (Homo sapiens) (UniProt Q9BYT3); conditions: Compound concentration 1000.0 nM
Chain of Serine/threonine-protein kinase 33 (Homo sapiens) (Q9BYT3 whole entry, looked up): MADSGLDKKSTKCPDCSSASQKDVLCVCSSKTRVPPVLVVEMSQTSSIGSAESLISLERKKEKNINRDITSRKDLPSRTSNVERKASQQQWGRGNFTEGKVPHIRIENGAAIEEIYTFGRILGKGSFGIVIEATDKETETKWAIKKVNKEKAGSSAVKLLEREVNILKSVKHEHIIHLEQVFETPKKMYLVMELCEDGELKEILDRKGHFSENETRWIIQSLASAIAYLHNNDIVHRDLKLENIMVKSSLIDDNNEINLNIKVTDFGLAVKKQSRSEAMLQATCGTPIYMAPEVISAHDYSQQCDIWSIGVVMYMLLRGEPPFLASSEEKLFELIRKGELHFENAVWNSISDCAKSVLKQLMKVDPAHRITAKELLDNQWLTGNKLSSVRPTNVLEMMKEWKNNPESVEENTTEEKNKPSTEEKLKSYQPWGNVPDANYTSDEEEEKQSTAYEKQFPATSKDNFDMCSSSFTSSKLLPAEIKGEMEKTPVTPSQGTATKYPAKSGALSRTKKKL

[19] = target: Glycogen synthase kinase-3 alpha (Homo sapiens) (UniProt P49840); conditions: Compound concentration 1000.0 nM
[20] = target: Activin receptor type-1 (Homo sapiens) (UniProt Q04771); conditions: Compound concentration 1000.0 nM
[21] = target: Dual specificity testis-specific protein kinase 1 (Homo sapiens) (UniProt Q15569); conditions: Compound concentration 1000.0 nM
[22] = target: Serine/threonine-protein kinase 25 (Homo sapiens) (UniProt O00506); conditions: Compound concentration 1000.0 nM
[23] = test system: Hepatocyte growth factor receptor (Homo sapiens), P08581 [Y1235D]; conditions: Compound concentration 1000.0 nM
[24] = target: Serine/threonine-protein kinase Sgk2 (Homo sapiens) (UniProt Q9HBY8); conditions: Compound concentration 1000.0 nM
[25] = target: Ephrin type-B receptor 4 (Homo sapiens) (UniProt P54760); conditions: Compound concentration 1000.0 nM
[26] = test system: Tyrosine-protein kinase ABL1 (Homo sapiens), P00519 [T315I]; conditions: Compound concentration 1000.0 nM
[27] = target: Citron Rho-interacting kinase (Homo sapiens) (UniProt O14578); conditions: Compound concentration 1000.0 nM
[28] = target: Alpha-2C adrenergic receptor (Homo sapiens) (UniProt P18825); conditions: Compound concentration 10.0 uM
[29] = target: Serine/threonine-protein kinase Nek11 (Homo sapiens) (UniProt Q8NG66); conditions: Compound concentration 1000.0 nM
[30] = target: Mitogen-activated protein kinase kinase kinase 1 (Homo sapiens) (UniProt Q13233); conditions: Compound concentration 1000.0 nM
[31] = target: Proto-oncogene tyrosine-protein kinase Src (Homo sapiens) (UniProt P12931); conditions: Compound concentration 1000.0 nM
[32] = test system: Mast/stem cell growth factor receptor Kit (Homo sapiens), P10721 [D816H]; conditions: Compound concentration 1000.0 nM
[33] = target: Serine/threonine-protein kinase 35 (Homo sapiens) (UniProt Q8TDR2); conditions: Compound concentration 1000.0 nM
[34] = target: Ankyrin repeat and protein kinase domain-containing protein 1 (Homo sapiens) (UniProt Q8NFD2); conditions: Compound concentration 1000.0 nM
[35] = target: Protein-tyrosine kinase 6 (Homo sapiens) (UniProt Q13882); conditions: Compound concentration 1000.0 nM
Chain of Protein-tyrosine kinase 6 (Homo sapiens) (Q13882 whole entry, looked up): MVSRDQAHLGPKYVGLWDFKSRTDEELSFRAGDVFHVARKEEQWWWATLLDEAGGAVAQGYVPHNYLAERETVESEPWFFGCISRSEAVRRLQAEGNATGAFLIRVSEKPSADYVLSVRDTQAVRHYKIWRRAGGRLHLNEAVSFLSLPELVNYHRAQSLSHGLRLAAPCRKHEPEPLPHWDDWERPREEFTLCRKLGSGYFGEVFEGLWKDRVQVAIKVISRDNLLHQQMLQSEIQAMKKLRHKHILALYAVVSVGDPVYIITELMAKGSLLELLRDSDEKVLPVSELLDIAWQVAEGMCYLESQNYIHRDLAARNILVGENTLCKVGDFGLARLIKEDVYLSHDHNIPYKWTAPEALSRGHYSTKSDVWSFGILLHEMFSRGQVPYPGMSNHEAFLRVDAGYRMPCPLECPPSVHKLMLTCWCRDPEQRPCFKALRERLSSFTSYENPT

[36] = target: Serine/threonine-protein kinase RIO3 (Homo sapiens) (UniProt O14730); conditions: Compound concentration 1000.0 nM
[37] = target: 5-hydroxytryptamine receptor 6 (Homo sapiens) (UniProt P50406); conditions: Compound concentration 10.0 uM
[38] = target: Tyrosine-protein kinase Mer (Homo sapiens) (UniProt Q12866); conditions: Compound concentration 1000.0 nM
Chain of Tyrosine-protein kinase Mer (Homo sapiens) (Q12866 whole entry): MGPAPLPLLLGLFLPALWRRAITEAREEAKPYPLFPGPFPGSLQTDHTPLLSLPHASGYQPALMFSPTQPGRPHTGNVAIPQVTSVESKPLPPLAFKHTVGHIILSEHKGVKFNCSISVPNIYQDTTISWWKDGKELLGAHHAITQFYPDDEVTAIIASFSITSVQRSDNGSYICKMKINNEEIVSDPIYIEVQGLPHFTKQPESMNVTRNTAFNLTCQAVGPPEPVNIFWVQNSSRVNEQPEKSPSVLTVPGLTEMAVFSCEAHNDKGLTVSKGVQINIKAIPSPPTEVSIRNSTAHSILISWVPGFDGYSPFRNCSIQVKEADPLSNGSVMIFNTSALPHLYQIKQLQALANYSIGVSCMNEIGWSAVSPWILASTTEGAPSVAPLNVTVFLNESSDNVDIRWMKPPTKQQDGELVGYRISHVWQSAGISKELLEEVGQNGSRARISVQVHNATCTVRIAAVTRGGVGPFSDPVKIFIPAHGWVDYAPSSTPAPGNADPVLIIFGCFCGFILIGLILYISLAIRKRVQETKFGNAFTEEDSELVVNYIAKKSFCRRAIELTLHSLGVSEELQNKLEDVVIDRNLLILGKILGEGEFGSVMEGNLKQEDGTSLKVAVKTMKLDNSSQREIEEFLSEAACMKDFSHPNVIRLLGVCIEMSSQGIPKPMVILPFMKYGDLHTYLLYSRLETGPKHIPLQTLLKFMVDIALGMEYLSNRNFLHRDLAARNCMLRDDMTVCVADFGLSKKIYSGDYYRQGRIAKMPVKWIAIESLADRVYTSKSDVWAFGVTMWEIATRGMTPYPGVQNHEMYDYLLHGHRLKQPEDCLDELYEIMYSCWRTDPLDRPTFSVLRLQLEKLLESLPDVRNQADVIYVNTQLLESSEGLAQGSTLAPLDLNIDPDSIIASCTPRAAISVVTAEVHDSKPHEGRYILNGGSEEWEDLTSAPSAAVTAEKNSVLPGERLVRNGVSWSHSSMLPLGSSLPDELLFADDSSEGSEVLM

[39] = target: Casein kinase II subunit alpha (Homo sapiens) (UniProt P68400); conditions: Compound concentration 1000.0 nM
[40] = target: Vascular endothelial growth factor receptor 2 (Homo sapiens) (UniProt P35968); conditions: Compound concentration 1000.0 nM
Chain of Vascular endothelial growth factor receptor 2 (Homo sapiens) (P35968 whole entry): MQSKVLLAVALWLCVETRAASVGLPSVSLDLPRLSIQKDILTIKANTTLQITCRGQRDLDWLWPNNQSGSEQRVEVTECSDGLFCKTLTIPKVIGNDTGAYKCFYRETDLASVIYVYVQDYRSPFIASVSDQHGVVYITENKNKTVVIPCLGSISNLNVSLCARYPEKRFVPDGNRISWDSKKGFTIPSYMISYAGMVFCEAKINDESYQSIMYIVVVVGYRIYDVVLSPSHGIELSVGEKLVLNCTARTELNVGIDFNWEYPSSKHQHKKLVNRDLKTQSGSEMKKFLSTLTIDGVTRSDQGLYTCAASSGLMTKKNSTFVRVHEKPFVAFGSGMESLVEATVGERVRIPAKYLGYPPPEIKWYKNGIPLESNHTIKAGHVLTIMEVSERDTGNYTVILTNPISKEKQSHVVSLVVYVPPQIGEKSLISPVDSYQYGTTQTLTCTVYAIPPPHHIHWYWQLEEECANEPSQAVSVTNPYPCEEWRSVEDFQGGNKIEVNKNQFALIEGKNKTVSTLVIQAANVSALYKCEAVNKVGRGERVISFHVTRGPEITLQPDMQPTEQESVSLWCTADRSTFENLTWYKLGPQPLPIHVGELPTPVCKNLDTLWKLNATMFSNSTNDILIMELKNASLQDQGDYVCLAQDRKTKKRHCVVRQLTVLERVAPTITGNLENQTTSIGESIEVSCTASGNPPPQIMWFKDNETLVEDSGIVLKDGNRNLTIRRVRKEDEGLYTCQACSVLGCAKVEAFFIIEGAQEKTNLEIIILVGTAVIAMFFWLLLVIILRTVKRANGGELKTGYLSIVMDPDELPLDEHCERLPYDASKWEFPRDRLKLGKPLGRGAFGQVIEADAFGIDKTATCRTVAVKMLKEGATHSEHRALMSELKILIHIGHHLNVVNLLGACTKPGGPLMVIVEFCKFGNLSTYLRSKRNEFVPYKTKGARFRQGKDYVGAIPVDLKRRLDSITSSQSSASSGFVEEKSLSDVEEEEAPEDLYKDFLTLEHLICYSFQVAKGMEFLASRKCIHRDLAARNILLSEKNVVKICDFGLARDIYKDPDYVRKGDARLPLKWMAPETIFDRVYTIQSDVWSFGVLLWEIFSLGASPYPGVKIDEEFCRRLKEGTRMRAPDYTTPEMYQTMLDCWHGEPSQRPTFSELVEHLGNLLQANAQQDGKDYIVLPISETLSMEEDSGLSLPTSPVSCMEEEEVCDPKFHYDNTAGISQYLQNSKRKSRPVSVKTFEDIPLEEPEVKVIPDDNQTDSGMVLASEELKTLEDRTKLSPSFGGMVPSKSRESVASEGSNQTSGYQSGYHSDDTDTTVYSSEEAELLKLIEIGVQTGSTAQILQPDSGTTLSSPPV

[41] = target: Receptor tyrosine-protein kinase erbB-3 (Homo sapiens) (UniProt P21860); conditions: Compound concentration 1000.0 nM
[42] = test system: Phosphatidylinositol 4,5-bisphosphate 3-kinase catalytic subunit alpha isoform (Homo sapiens), P42336 [M1043I]; conditions: Compound concentration 1000.0 nM
[43] = target: Mitogen-activated protein kinase kinase kinase 13 (Homo sapiens) (UniProt O43283); conditions: Compound concentration 1000.0 nM
Chain of Mitogen-activated protein kinase kinase kinase 13 (Homo sapiens) (O43283 whole entry): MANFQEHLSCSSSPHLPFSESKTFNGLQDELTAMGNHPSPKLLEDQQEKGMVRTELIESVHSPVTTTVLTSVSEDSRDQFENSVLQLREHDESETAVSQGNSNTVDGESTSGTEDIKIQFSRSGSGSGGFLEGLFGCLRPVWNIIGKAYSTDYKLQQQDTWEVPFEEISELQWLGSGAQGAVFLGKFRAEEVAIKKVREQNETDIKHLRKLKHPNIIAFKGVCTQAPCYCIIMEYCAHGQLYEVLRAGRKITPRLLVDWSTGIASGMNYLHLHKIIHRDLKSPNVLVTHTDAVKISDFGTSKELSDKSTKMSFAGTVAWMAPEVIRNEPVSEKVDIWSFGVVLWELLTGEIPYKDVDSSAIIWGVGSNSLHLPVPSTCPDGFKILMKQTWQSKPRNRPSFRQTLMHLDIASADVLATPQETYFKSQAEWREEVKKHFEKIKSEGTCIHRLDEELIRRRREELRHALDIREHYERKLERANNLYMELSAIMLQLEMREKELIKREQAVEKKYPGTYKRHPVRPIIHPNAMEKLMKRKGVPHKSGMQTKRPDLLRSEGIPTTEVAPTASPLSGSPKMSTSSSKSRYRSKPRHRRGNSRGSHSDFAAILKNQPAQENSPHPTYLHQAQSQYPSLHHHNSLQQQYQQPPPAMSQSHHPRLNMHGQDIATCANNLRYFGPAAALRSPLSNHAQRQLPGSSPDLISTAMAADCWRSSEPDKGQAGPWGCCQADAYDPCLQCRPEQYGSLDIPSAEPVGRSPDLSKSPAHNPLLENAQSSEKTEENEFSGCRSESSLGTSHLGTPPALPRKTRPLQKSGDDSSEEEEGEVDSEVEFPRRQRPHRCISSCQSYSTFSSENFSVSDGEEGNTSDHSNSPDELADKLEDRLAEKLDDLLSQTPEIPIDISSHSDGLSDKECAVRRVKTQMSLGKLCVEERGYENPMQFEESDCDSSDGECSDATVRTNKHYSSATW

[44] = target: NT-3 growth factor receptor (Homo sapiens) (UniProt Q16288); conditions: Compound concentration 1000.0 nM
Chain of NT-3 growth factor receptor (Homo sapiens) (Q16288 32-839 limits assumed): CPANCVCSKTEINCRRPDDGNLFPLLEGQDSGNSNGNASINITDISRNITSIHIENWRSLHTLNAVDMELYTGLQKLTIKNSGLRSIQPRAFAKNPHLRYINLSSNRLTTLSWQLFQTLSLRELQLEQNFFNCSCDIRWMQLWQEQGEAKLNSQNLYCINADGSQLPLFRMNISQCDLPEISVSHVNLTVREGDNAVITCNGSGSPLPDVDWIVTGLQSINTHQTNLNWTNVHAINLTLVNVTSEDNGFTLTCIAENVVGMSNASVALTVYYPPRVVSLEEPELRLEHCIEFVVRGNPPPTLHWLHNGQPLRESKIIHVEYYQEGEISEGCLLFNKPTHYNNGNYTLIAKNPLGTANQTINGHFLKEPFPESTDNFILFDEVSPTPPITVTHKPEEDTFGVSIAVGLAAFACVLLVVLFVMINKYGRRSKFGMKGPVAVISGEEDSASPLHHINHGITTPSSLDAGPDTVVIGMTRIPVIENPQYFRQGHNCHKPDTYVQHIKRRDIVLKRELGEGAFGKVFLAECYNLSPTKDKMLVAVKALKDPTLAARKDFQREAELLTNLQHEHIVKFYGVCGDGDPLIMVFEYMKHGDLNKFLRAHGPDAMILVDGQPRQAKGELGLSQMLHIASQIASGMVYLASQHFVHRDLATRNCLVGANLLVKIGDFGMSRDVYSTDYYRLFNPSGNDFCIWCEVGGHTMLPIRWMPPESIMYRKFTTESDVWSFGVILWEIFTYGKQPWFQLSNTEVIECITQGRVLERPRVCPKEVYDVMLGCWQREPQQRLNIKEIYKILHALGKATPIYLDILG

[45] = target: Casein kinase I isoform gamma-3 (Homo sapiens) (UniProt Q9Y6M4); conditions: Compound concentration 1000.0 nM

For `CCC(=O)N[C@@H]1CC[C@H](C(=O)N(C)c2ccc(-c3nc4ccccc4o3)cc2)C1` [BI 99990], the residual activity [1] was 84%, the residual activity [2] was 100% and the residual activity [3] was 100%. The residual activity [4] was 100%, the residual activity [5] was 100% and the residual activity [6] was 98%. The residual activity [7] was 74%, the residual activity [8] was 100% and the residual activity [9] was 100%. It also gave a residual activity [10] of 100%, a residual activity [11] of 83% and an inhibition [12] of 62.9%. The residual activity [13] was 90%, the residual activity [14] was 100% and the residual activity [15] was 100%. The residual activity [16] was 84%, the inhibition [17] was 20.2% and the residual activity [18] was 100%. It also gave a residual activity [19] of 84%, a residual activity [20] of 94% and a residual activity [21] of 75%. The residual activity [22] was 100%, the residual activity [23] was 100% and the residual activity [24] was 100%. The residual activity [25] was 100%, the residual activity [26] was 87% and the residual activity [27] was 93%. For the same compound, the inhibition [28] was -2.55%, the residual activity [29] was 100% and the residual activity [30] was 74%. The residual activity [31] was 100%, the residual activity [32] was 100% and the residual activity [33] was 100%. For the same compound, the residual activity [34] was 100%, the residual activity [35] was 90% and the residual activity [36] was 100%. The inhibition [37] was 10.1%, the residual activity [38] was 100% and the residual activity [39] was 98%. For the same compound, the residual activity [40] was 77%, the residual activity [41] was 100% and the residual activity [42] was 100%. The residual activity [43] was 100%, the residual activity [44] was 100% and the residual activity [45] was 100%.
Work on `CCC(=O)N[C@H]1CC[C@@H](C(=O)N(C)c2ccc(-c3nc4ccccc4o3)cc2)C1` [BI 99179] yielded a residual activity [1] of 85%, a residual activity [2] of 100% and a residual activity [3] of 100%. For the same compound, the residual activity [4] was 70%, the residual activity [5] was 100% and the residual activity [6] was 82%. It also gave a residual activity [7] of 88%, a residual activity [8] of 100% and a residual activity [9] of 100%. For the same compound, the residual activity [10] was 100%, the residual activity [11] was 100% and the inhibition [12] was 33.6%. It also gave a residual activity [13] of 83%, a residual activity [14] of 100% and a residual activity [15] of 100%. The residual activity [16] was 89%, the inhibition [17] was 32.8% and the residual activity [18] was 100%. It also gave a residual activity [19] of 100%, a residual activity [20] of 85% and a residual activity [21] of 100%. The residual activity [22] was 100%, the residual activity [23] was 100% and the residual activity [24] was 93%. The residual activity [25] was 73%, the residual activity [26] was 89% and the residual activity [27] was 99%. The inhibition [28] was -5.31%, the residual activity [29] was 86% and the residual activity [30] was 73%. For the same compound, the residual activity [31] was 93%, the residual activity [32] was 85% and the residual activity [33] was 88%. It also gave a residual activity [34] of 66%, a residual activity [35] of 100% and a residual activity [36] of 92%. The inhibition [37] was 3.86%, the residual activity [38] was 100% and the residual activity [39] was 74%. For the same compound, the residual activity [40] was 75%, the residual activity [41] was 100% and the residual activity [42] was 100%. For the same compound, the residual activity [43] was 87%, the residual activity [44] was 32% and the residual activity [45] was 99%.
